Test results as given in article PMC6784244 (Toxins, 2019).
In brackets after ≈: the same amount, converted by molar mass. Several values for one entry are separate records, joined by “and”; a condition that tells them apart may be missing. Identical values can stand only once. Like-named read-outs stand apart in the source and are kept apart here.

How the values were obtained:
[1] = system: C. perfringens; assay type: cell-based, Clostridium perfringens
[2] = system: Stachybotrys chartarum (DSMZ 2144); conditions: DSMZ 2144, pH 7
[3] = design: key: -- indicates the absence of interaction; conditions: lipid monolayer on PBS pH 7.4, peptide 1 µM, extrapolated to delta pressure 0; -- = absence of interaction
Protocol: (§1) Peptide–lipid interaction was evaluated using reconstituted lipid monolayer at the air–water interface as previously described. Pure prokaryotic and eukaryotic lipids used were: POPC (1-palmitoyl-2-oleoyl-glycero-3-phosphocholine), POPE (1-palmitoyl-2-oleoyl-sn-glycero-3-phosphoethanolamine), POPG (1-palmitoyl-2-oleoyl-sn-glycero-3-phospho-(1’-rac-glycerol), and cardiolipin, all from Avanti Polar Lipid (Alabama, USA). LTA (Lipoteichoic acid from B. subtilis) was obtained from Invivogen SAS (Toulouse, France). Pure lipids were reconstituted in chloroform:methanol (2:1, v:v) at 1 mg/mL and stored at −20 °C under nitrogen. The interaction and insertion of the ENN and BEA into lipids were evaluated through the measurement of their critical pressure of insertion as previously described. Briefly, lipids were spread using a 50 µL Hamilton’s syringe at the surface of 800 µL of sterile PBS creating a lipid monolayer at the air–water interface. Lipids were added until the surface pressure reached the desired value. After 5–10 min of incubation allowing evaporation of the solvent and stabilization of the initial surface pressure, 8 µL of ENN or BEA diluted in sterile PBS at 100 µM were injected into the 800 µL sub-phase of PBS under the lipid monolayer (pH 7.4, volume 800 µL) using a 10 µL Hamilton syringe giving a final concentration of peptides of 1 µM, preliminary experiments having shown that this concentration gave optimal insertion. The variation of the surface pressure caused by peptide injection was then continuously monitored using a fully automated microtensiometer (µTROUGH SX, Kibron Inc., Helsinki, Finland) until reaching equilibrium (maximal surface pressure increase being usually obtained after 15–25 min). The critical pressure of insertion of each peptide was determined by changing the initial pressure of lipid monolayer (from 10 and 30 mN/m) and measuring the variation of pressure caused by the insertion of the peptide. The critical pressure of insertion of each peptide in a particular lipid was determined graphically and calculated as the theoretical value of initial pressure of lipid monolayer not permissive to peptide insertion, i.e., causing a variation of pressure equal to 0 mN/m.

[4] = system: human erythrocytes; conditions: pH 7.4
[5] = system: Helicobacter pylori (ATCC 43504)
[6] = system: Acinetobacter baumannii (CIP 110431)
[7] = system: F. oxysporum (DSMZ 62316); conditions: DSMZ 62316, pH 7
[8] = system: Escherichia coli (ATCC 8739)
[9] = system: Methicillin-resistant S. aureus strain MRSA USA300
[10] = system: Fusarium graminearum (DSMZ 1095); conditions: DSMZ 1095, pH 7
[11] = system: Penicillium verrucosum (DSMZ 12639); conditions: DSMZ 12639, pH 7
[12] = system: A. ochraceus (DSMZ 824); conditions: DSMZ 824, pH 7
[13] = system: Bacillus subtilis (ATCC 6633)
[14] = system: Pseudomonas aeruginosa (ATCC CRM-9027)
[15] = design: species or system B. subtilis; key: -- indicates the absence of interaction; conditions: lipid monolayer on PBS pH 7.4, peptide 1 µM, extrapolated to delta pressure 0; -- = absence of interaction
Protocol: as §1

[16] = system: C. perfringens; assay type: cell-based, Clostridium perfringens; remark: listed apart in the source
[17] = system: Staphylococcus aureus (ATCC CRM-6538P)
[18] = system: Clostridium perfringens (ATCC 13124)
[19] = system: Nisin-resistant B. subtilis (DSMZ 347)
[20] = system: Candida albicans (DSMZ 10697); conditions: DSMZ 10697, 24 h, pH 7
[21] = system: Mycobacterium smegmatis (mc2155, ATCC 700084); conditions: mc2155, 72 h
[22] = system: C. perfringens; assay type: cell-based, Clostridium perfringens; remark: listed apart in the source
[23] = system: N87 (human gastric cell line); conditions: 48 h
[24] = system: Vancomycin-resistant Enterococcus faecalis (DSMZ 13591)
[25] = system: F. verticillioides (DSMZ 62264); conditions: DSMZ 62264, pH 7
[26] = system: A. niger (ATCC 9142); conditions: ATCC 9142, pH 7
[27] = lipid monolayer at air-water interface on PBS pH 7.4, peptide 1 µM, initial pressure 10-30 mN/m, extrapolated to delta pressure 0
Protocol: as §1

[28] = system: Aspergillus flavus (DSMZ 1959); conditions: DSMZ 1959, pH 7
[29] = system: HEK (human normal epidermal keratinocytes); conditions: 48 h
[30] = C. perfringens, 5 x MIC, 4 h, 37 °C, anaerobic, FM4-64FX membrane and DAPI DNA staining, confocal microscope

CC1(C)S[C@@H]2[C@H](NC(=O)[C@H](N)c3ccc(O)cc3)C(=O)N2[C@H]1C(=O)O [Amoxicillin, reference compound]
Observed Morphology [1, 30]: • Elongated cells (5–6 times compared to control) • Normally condensed DNA

CC(C)[C@H]1OC(=O)[C@H](Cc2ccccc2)N(C)C(=O)[C@@H](C(C)C)OC(=O)[C@H](Cc2ccccc2)N(C)C(=O)[C@@H](C(C)C)OC(=O)[C@H](Cc2ccccc2)N(C)C1=O [BEA, Beauvericin]
MIC, S. chartarum [2]: >100 µM | critical pressure of insertion, POPG [3]: -- | HC50 (dose causing 50% hemolysis), Erythrocytes [4]: 118.9 ± 15.8 µM | MIC, H. pylori [5]: >100 µM | MIC, A. baumannii [6]: >100 µM | MIC, F. oxysporum [7]: >100 µM | MIC, E. coli [8]: >100 µM | Known/possible target [1]: Protein biosynthesis | Observed Morphology [1]: • No cell elongation • DNA condensed in 1–4 circles per cells | MIC, S. aureus MRSA [9]: 6.25 to 12.5 µM | MIC, F. graminearum [10]: 25 µM (≈ 19.6 µg/mL) | MIC, P. verrucosum [11]: >100 µM | MIC, A. ochraceus [12]: >100 µM | MIC, B. subtilis [13]: 6.25 to 12.5 µM | MIC, P. aeruginosa [14]: >100 µM | critical pressure of insertion, LTA [15]: -- | membrane depolarization at 100 µM [16]: 59.1 ± 2.0% | membrane depolarization at four times their MIC [16]: 63.8 ± 4.8% | membrane depolarization at their MIC [16]: 38.3 ± 3.3% and 30–40% | MIC, S. aureus [17]: 12.5 µM (≈ 9.8 µg/mL) | MIC, C. perfringens [18]: 6.25 µM (≈ 4.9 µg/mL) | MIC, B. subtilis NR [19]: 6.25 to 12.5 µM | MIC, C. albicans [20]: 6.25 µM (≈ 4.9 µg/mL) | MIC, M. smegmatis [21]: 25 µM (≈ 19.6 µg/mL) | percentage of permeabilization at four times the MIC [22]: 1.8 ± 2.8% | IC50 [23]: 27.5 ± 0.7 µM | MIC, E. faecalis [24]: 12.5 µM (≈ 9.8 µg/mL) | MIC, F. verticillioides [25]: >100 µM | MIC, A. niger [26]: >100 µM | critical pressure of insertion, POPC [27]: 41.65 mN/m | critical pressure of insertion, POPE [27]: 32.46 mN/m | MIC, A. flavus [28]: >100 µM | IC50 [29]: 5.4 ± 0.9 µM

CO/N=C1\CN(c2nc3c(cc2F)c(=O)c(C(=O)O)cn3C2CC2)CC1CN (stereo not shown) [Gemifloxacin, reference compound]
Observed Morphology [1, 30]: • Elongated cells (5–6 times compared to control) • Decondensed DNA • Chain formation

CO[C@H]1/C=C/O[C@@]2(C)Oc3c(C)c(O)c4c(O)c(c(/C=N/N5CCN(C)CC5)c(O)c4c3C2=O)NC(=O)/C(C)=C\C=C\[C@H](C)[C@H](O)[C@@H](C)[C@@H](O)[C@@H](C)[C@H](OC(C)=O)[C@@H]1C [Rifampicin, reference compound]
Observed Morphology [1, 30]: • No cell elongation • DNA condensed in one filament crossing the cells

CN(C)[C@@H]1C(O)=C(C(N)=O)C(=O)[C@@]2(O)C(O)=C3C(=O)c4c(O)cccc4[C@@](C)(O)[C@H]3C[C@@H]12 [Tetracycline, reference compound]
Observed Morphology [1, 30]: • Some cell elongation (1.5–2 times compared to control) • DNA condensed in 1–4 circles per cells
